Laboratory results taken from patent US7579005B2, “Process for recombinant expression and purification of antimicrobial peptides using periplasmic targeting signals as precipitable hydrophobic tags” (E. I. du Pont de Nemours and Company, priority 2005, dated 2009).
Residues, ends and D or L forms follow the SMILES beside them.

Key:
E. coli expression host = experiment: Growth of E. coli host cells expressing the fusion proteins (shake flask studies); format: cell-based; settings: tryptophan induction
Procedure: Single colonies of E. coli containing pLH117 or pLH119 were grown in Rich Medium overnight at 30° C. at 250 rpm. A fresh culture was started the following day using 10% of the overnight growth diluted in Induction media and grown to an OD550 of 0.8. Induction media had no tryptophan (1×M9 salts, 0.2% casamino acids, 0.5% glucose, 1 mM MgCl2, and 100 ug/ml ampicillin). To facilitate induction, tryptophan was added for a final concentration of 100 μg/ml and flasks were incubated at 37° C. with shaking at 300 rpm. Samples were taken pre-induction and at 4, 8, and 12 hr post induction. Cell pellets were collected by centrifugation and analyzed for protein production.
Single colonies of E. coli containing pLH121 or pLH122 were grown in Rich Medium overnight at 30° C. at 250 rpm. A fresh culture was started the following day using 10% of the overnight growth in Induction medium and grown to an OD550 of 1.0 at 37°. To facilitate induction, tryptophan was added for a final concentration of 100 μg/ml. Samples were taken pre-induction and at 5 hr post induction. Cell pellets were collected by centrifugation and analyzed for protein production.

[1] = Effect of pH on solubility of OmpAPerSD and PG1; format: physicochemical; settings: chemically synthesized samples, pH 1 to 12, 15 minutes at room temperature, supernatant by BCA total protein; FIG. 6
Procedure: Stock solutions of chemically synthesized samples of OmpAPerSD and PG1 were made in 0.1N NaOH. The pH of each sample was adjusted by the addition of 0.2 M sodium phosphate buffer or 0.1N HCl. Finally, water was added to make the final volume of each sample the same and the samples were mixed by vortexing. After 15 minutes at room temperature all samples were centrifuged at 13,000×g in a micro-centrifuge. The supernatants were carefully separated from the insoluble precipitates and analyzed for protein by the BCA total protein method. Protein determinations were made using standard solutions of synthetic OmpAPerSD and PG1, respectively, in 0.1N NaOH. […] The difference in pH solubility of OmpAPerSD and PG1 peptides, with maximal difference at low pH, lends to their ready separation by centrifugation or filtration.

Compound | growth of cells expressing the fusion protein versus control cells containing only pLEX (E. coli expression host) | solubility over a range of pH [1]
OmpA targeting signal sequence-16KGLG1-6His: fusion protein of OmpA periplasmic targeting signal, 16KGLG1 and 6His tag, expressed from pLH119 (MKKTAIAIAVALAGFATVAQAKGLKKLLKGLKKLLKLHHHHHH; OmpA PerS-G1-6His fusion protein) | grew at similar rates as control cells | –
CC[C@H](C)[C@H](NC(=O)[C@H](C)NC(=O)[C@@H](NC(=O)[C@H](C)NC(=O)[C@@H](NC(=O)[C@H](CCCCN)NC(=O)[C@H](CCCCN)NC(=O)[C@@H](N)CCSC)[C@@H](C)O)[C@@H](C)CC)C(=O)N[C@@H](C)C(=O)N[C@H](C(=O)N[C@@H](C)C(=O)N[C@@H](CC(C)C)C(=O)N[C@@H](C)C(=O)NCC(=O)N[C@@H](Cc1ccccc1)C(=O)N[C@@H](C)C(=O)N[C@H](C(=O)N[C@H](C(=O)N[C@@H](C)C(=O)N[C@@H](CCC(N)=O)C(=O)N[C@@H](C)C(=O)N[C@@H](CC(=O)O)C(=O)O)C(C)C)[C@@H](C)O)C(C)C [OmpAPerSD] (H-MKKTAIAIAVALAGFATVAQAD-OH; N-terminus and C-terminus assumed) | – | increases with increasing pH
CC(C)C[C@H](NC(=O)[C@H](CCCCN)NC(=O)[C@H](CC(C)C)NC(=O)[C@H](CC(C)C)NC(=O)[C@H](CCCCN)NC(=O)[C@H](CCCCN)NC(=O)[C@H](CC(C)C)NC(=O)CNC(=O)[C@H](CCCCN)NC(=O)[C@H](CC(C)C)NC(=O)[C@H](CC(C)C)NC(=O)[C@H](CCCCN)NC(=O)[C@H](CCCCN)NC(=O)[C@H](CC(C)C)NC(=O)CNC(=O)[C@H](CCCCN)NC(=O)[C@@H]1CCCN1)C(=O)O [P16KGLG1] (H-PKGLKKLLKGLKKLLKL-OH; N-terminus and C-terminus assumed) | – | does not appear to be pH dependent
